target: Factor IXa (Homo sapiens, UniProt P00740); experiment: Determination of inhibitory activity against Factor IXa (cleavage of fluorescent peptide substrate); assay type: biochemical; conditions: cleavage of fluorescent peptide CH3SO2-D-CHG-Gly-Arg-AFC, release of AFC; read-out: FIXa IC50
How it was run: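 Factor IXa activity followed via cleavage of CH3SO2-D-CHG-Gly-Arg-AFC, releasing AFC. Fluorescence read at excitation 405 nm, emission 510 nm.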

Factor IXa, sequence (P00740 227-461 limits assumed): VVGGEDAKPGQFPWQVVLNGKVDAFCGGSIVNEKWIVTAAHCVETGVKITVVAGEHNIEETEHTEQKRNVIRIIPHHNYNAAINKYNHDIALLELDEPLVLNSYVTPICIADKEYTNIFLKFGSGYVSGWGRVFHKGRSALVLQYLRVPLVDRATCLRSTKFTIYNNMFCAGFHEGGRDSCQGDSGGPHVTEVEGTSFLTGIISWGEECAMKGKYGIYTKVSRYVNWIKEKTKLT
Factor IXa, sequence (P00740 47-191 partner limits assumed): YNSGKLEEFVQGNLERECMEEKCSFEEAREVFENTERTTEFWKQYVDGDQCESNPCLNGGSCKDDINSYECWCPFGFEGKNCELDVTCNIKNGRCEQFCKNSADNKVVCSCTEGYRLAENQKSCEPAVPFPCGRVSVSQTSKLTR

| Structure (SMILES) | IC50 [nM] |
| --- | --- |
| C[C@]1([C@@H](O)C(=O)Nc2ccc3c(N)noc3c2)OCCN(c2ccn(-c3cnnc(C#N)c3)n2)C1=O [Example 100, (R)—N-(3-aminobenzo[d]isoxazol-6-yl)-2-((R)-4-(1-(6-cyanopyridazin-4-yl)-1H-pyrazol-3-yl)-2-methyl-3-oxomorpholin-2-yl)-2-hydroxyacetamide] | 2.17 |
| COc1ncc(-n2ccc(N3CCO[C@](C)([C@@H](O)C(=O)Nc4ccc5c(N)noc5c4)C3=O)n2)cn1 [Example 101, (R)—N-(3-aminobenzo[d]isoxazol-6-yl)-2-hydroxy-2-((R)-4-(1-(2-methoxypyrimidin-5-yl)-1H-pyrazol-3-yl)-2-methyl-3-oxomorpholin-2-yl)acetamide] | 635 |
| C[C@]1([C@@H](O)C(=O)Nc2ccc3c(N)noc3c2)OCCN(c2nc(-c3ccncc3)co2)C1=O [Example 105, (R)—N-(3-aminobenzo[d]isoxazol-6-yl)-2-hydroxy-2-((R)-2-methyl-3-oxo-4-(4-(pyridin-4-yl)oxazol-2-yl)morpholin-2-yl)acetamide] | 97.9 |
| C[C@]1([C@@H](O)C(=O)Nc2ccc3c(N)noc3c2)OCCN(c2cccc(OC3CCOCC3)n2)C1=O [Example 108, (R)—N-(3-aminobenzo[d]isoxazol-6-yl)-2-hydroxy-2-((R)-2-methyl-3-oxo-4-(6-((tetrahydro-2H-pyran-4-yl)oxy)pyridin-2-yl)morpholin-2-yl)acetamide] | 370 |
| C[C@]1([C@@H](O)C(=O)Nc2ccc3c(N)noc3c2)OCCN(c2cccc(-c3ccc(C(F)(F)F)cc3C(=O)O)n2)C1=O [Example 111, 2-(6-((R)-2-((R)-2-((3-aminobenzo[d]isoxazol-6-yl)amino)-1-hydroxy-2-oxoethyl)-2-methyl-3-oxomorpholino)pyridin-2-yl)-5-(trifluoromethyl)benzoic acid] | 972 |
| C[C@]1([C@@H](O)C(=O)Nc2ccc3c(N)noc3c2)OCCN(c2cccc(-c3ccnnc3)n2)C1=O [Example 112, (R)—N-(3-aminobenzo[d]isoxazol-6-yl)-2-hydroxy-2-((R)-2-methyl-3-oxo-4-(6-(pyridazin-4-yl)pyridin-2-yl)morpholin-2-yl)acetamide] | 41.6 |
| C[C@]1([C@@H](O)C(=O)Nc2ccc3c(N)noc3c2)OCCN(c2cccc(-c3cnoc3)n2)C1=O [Example 114, (R)—N-(3-aminobenzo[d]isoxazol-6-yl)-2-hydroxy-2-((R)-4-(6-(isoxazol-4-yl)pyridin-2-yl)-2-methyl-3-oxomorpholin-2-yl)acetamide] | 45.3 |
| C[C@](O)(C(=O)Nc1cc(Cl)c2c(N)noc2c1)[C@H]1OCCN(c2nn(-c3ccnc(C(F)(F)F)c3)cc2F)C1=O [Example 121, (R)—N-(3-amino-4-chlorobenzo[d]isoxazol-6-yl)-2-((R)-4-(4-fluoro-1-(2-(trifluoromethyl)pyridin-4-yl)-1H-pyrazol-3-yl)-3-oxomorpholin-2-yl)-2-hydroxypropanamide] | 193 |

More lines, in order of falling IC50, values ahead:

| IC50 [nM] | Structure (SMILES) |
| --- | --- |
| 1050 | C[C@](O)(C(=O)Nc1cc(Cl)c2c(N)noc2c1)[C@H]1OCCN(c2ccn(-c3ccnc(C(F)(F)F)c3)n2)C1=O [Example 120, (R)—N-(3-amino-4-chlorobenzo[d]isoxazol-6-yl)-2-hydroxy-2-((R)-3-oxo-4-(1-(2-(trifluoromethyl)pyridin-4-yl)-1H-pyrazol-3-yl)morpholin-2-yl)propanamide] |
| 544 | C[C@]1([C@@H](O)C(=O)Nc2ccc3c(N)noc3c2)OCCN(c2ccc3ccncc3n2)C1=O [Example 117, (R)—N-(3-aminobenzo[d]isoxazol-6-yl)-2-hydroxy-2-((R)-2-methyl-4-(1,7-naphthyridin-2-yl)-3-oxomorpholin-2-yl)acetamide] |
| 464 | C[C@]1([C@@H](O)C(=O)Nc2ccc3c(N)noc3c2)OCCN(c2cccc(-c3cnc(C(F)(F)F)nc3)n2)C1=O [Example 113, (R)—N-(3-aminobenzo[d]isoxazol-6-yl)-2-hydroxy-2-((R)-2-methyl-3-oxo-4-(6-(2-(trifluoromethyl)pyrimidin-5-yl)pyridin-2-yl)morpholin-2-yl)acetamide] |
| 455 | C[C@]1([C@@H](O)C(=O)Nc2ccc3c(N)noc3c2)OCCN(c2cccc(-c3ccc(C(=O)O)cc3)n2)C1=O [Example 110, 4-(6-((R)-2-((R)-2-((3-aminobenzo[d]isoxazol-6-yl)amino)-1-hydroxy-2-oxoethyl)-2-methyl-3-oxomorpholino)pyridin-2-yl)benzoic acid] |
| 401 | Cc1cc(N2CCO[C@](C)([C@@H](O)C(=O)Nc3ccc4c(N)noc4c3)C2=O)nn1C1CC1 [Example 104, (R)—N-(3-aminobenzo[d]isoxazol-6-yl)-2-((R)-4-(1-cyclopropyl-5-methyl-1H-pyrazol-3-yl)-2-methyl-3-oxomorpholin-2-yl)-2-hydroxyacetamide] |
| 380 | C[C@]1([C@@H](O)C(=O)Nc2ccc3c(N)noc3c2)OCCN(c2cccc(-c3ccc(OC(F)(F)F)cc3)n2)C1=O [Example 109, (R)—N-(3-aminobenzo[d]isoxazol-6-yl)-2-hydroxy-2-((R)-2-methyl-3-oxo-4-(6-(4-(trifluoromethoxy)phenyl)pyridin-2-yl)morpholin-2-yl)acetamide] |
| 224 | C[C@](O)(C(=O)Nc1cc(Cl)c2c(N)noc2c1)[C@H]1OCCN(c2ccn(-c3ccncc3)n2)C1=O [Example 119, (R)—N-(3-amino-4-chlorobenzo[d]isoxazol-6-yl)-2-hydroxy-2-((R)-3-oxo-4-(1-(pyridin-4-yl)-1H-pyrazol-3-yl)morpholin-2-yl)propanamide] |
| 124 | C[C@]1([C@@H](O)C(=O)Nc2ccc3c(N)noc3c2)OCCN(c2ccn(-c3cnc(C(F)(F)F)nc3)n2)C1=O [Example 102, (R)—N-(3-aminobenzo[d]isoxazol-6-yl)-2-hydroxy-2-((R)-2-methyl-3-oxo-4-(1-(2-(trifluoromethyl)pyrimidin-5-yl)-1H-pyrazol-3-yl)morpholin-2-yl)acetamide] |
| 101 | C[C@]1([C@@H](O)C(=O)Nc2ccc3c(N)noc3c2)OCCN(c2ccc3cc(C(F)(F)F)ncc3n2)C1=O [Example 118, (R)—N-(3-aminobenzo[d]isoxazol-6-yl)-2-hydroxy-2-((R)-2-methyl-3-oxo-4-(6-(trifluoromethyl)-1,7-naphthyridin-2-yl)morpholin-2-yl)acetamide] |
| 93.5 | Cc1noc(C)c1-c1cccc(N2CCO[C@](C)([C@@H](O)C(=O)Nc3ccc4c(N)noc4c3)C2=O)n1 [Example 116, (R)—N-(3-aminobenzo[d]isoxazol-6-yl)-2-((R)-4-(6-(3,5-dimethylisoxazol-4-yl)pyridin-2-yl)-2-methyl-3-oxomorpholin-2-yl)-2-hydroxyacetamide] |
| 68.2 | Cc1nocc1-c1cccc(N2CCO[C@](C)([C@@H](O)C(=O)Nc3ccc4c(N)noc4c3)C2=O)n1 [Example 115, (R)—N-(3-aminobenzo[d]isoxazol-6-yl)-2-hydroxy-2-((R)-2-methyl-4-(6-(3-methylisoxazol-4-yl)pyridin-2-yl)-3-oxomorpholin-2-yl)acetamide] |
| 10.8 | COc1nccc(-n2ccc(N3CCO[C@](C)([C@@H](O)C(=O)Nc4ccc5c(N)noc5c4)C3=O)n2)n1 [Example 103, (R)—N-(3-aminobenzo[d]isoxazol-6-yl)-2-hydroxy-2-((R)-4-(1-(2-methoxypyrimidin-4-yl)-1H-pyrazol-3-yl)-2-methyl-3-oxomorpholin-2-yl)acetamide] |

— patent publication US9708308B2, “Factor IXa inhibitors” (Merck Sharp & Dohme Corp., priority 2012, dated 2017)
